Assay results reported in the NIST ThermoML archive (doi:10.1016/j.jct.2015.01.004).
Values joined by “and” are separate entries in the source; they are usually repeats but may differ in a detail not shown here. Equal values may be shown once.

Experiment: molar heat capacity at constant pressure; xn = mol fraction of the nth substance listed
Conditions: 100 kPa

[Si] [silicon] + [Li]
Conditions | molar heat capacity at constant pressure
660 K, Crystal of intercomponent compound 1, relaxation calorimetry + DSC, x2 = 0.81 | 29.4 J/K/mol
660 K, Crystal of intercomponent compound 2, relaxation calorimetry + DSC, x2 = 0.804 | 30.54 J/K/mol
661.54 K, Crystal of intercomponent compound 2, Small sample (50 mg) DSC, x2 = 0.804 | 30.1 J/K/mol and 30.48 J/K/mol
661.72 K, Crystal of intercomponent compound 1, Small sample (50 mg) DSC, x2 = 0.81 | 29.4 J/K/mol
661.75 K, Crystal of intercomponent compound 1, Small sample (50 mg) DSC, x2 = 0.81 | 29.72 J/K/mol
671.45 K, Crystal of intercomponent compound 2, Small sample (50 mg) DSC, x2 = 0.804 | 30.27 J/K/mol and 30.68 J/K/mol
671.64 K, Crystal of intercomponent compound 1, Small sample (50 mg) DSC, x2 = 0.81 | 29.62 J/K/mol
671.66 K, Crystal of intercomponent compound 1, Small sample (50 mg) DSC, x2 = 0.81 | 29.83 J/K/mol
680 K, Crystal of intercomponent compound 1, relaxation calorimetry + DSC, x2 = 0.81 | 29.94 J/K/mol
680 K, Crystal of intercomponent compound 2, relaxation calorimetry + DSC, x2 = 0.804 | 30.97 J/K/mol
681.36 K, Crystal of intercomponent compound 2, Small sample (50 mg) DSC, x2 = 0.804 | 30.52 J/K/mol and 30.84 J/K/mol
681.56 K, Crystal of intercomponent compound 1, Small sample (50 mg) DSC, x2 = 0.81 | 29.62 J/K/mol
681.57 K, Crystal of intercomponent compound 1, Small sample (50 mg) DSC, x2 = 0.81 | 30.16 J/K/mol
691.29 K, Crystal of intercomponent compound 2, Small sample (50 mg) DSC, x2 = 0.804 | 30.56 J/K/mol and 31.08 J/K/mol
691.47 K, Crystal of intercomponent compound 1, Small sample (50 mg) DSC, x2 = 0.81 | 29.94 J/K/mol
691.48 K, Crystal of intercomponent compound 1, Small sample (50 mg) DSC, x2 = 0.81 | 30.38 J/K/mol
700 K, Crystal of intercomponent compound 1, relaxation calorimetry + DSC, x2 = 0.81 | 30.53 J/K/mol
700 K, Crystal of intercomponent compound 2, relaxation calorimetry + DSC, x2 = 0.804 | 31.4 J/K/mol
701.21 K, Crystal of intercomponent compound 2, Small sample (50 mg) DSC, x2 = 0.804 | 31.04 J/K/mol and 31.36 J/K/mol
701.37 K, Crystal of intercomponent compound 1, Small sample (50 mg) DSC, x2 = 0.81 | 30.27 J/K/mol
701.39 K, Crystal of intercomponent compound 1, Small sample (50 mg) DSC, x2 = 0.81 | 30.6 J/K/mol
711.13 K, Crystal of intercomponent compound 2, Small sample (50 mg) DSC, x2 = 0.804 | 31.38 J/K/mol and 31.59 J/K/mol
711.28 K, Crystal of intercomponent compound 1, Small sample (50 mg) DSC, x2 = 0.81 | 30.6 J/K/mol
711.3 K, Crystal of intercomponent compound 1, Small sample (50 mg) DSC, x2 = 0.81 | 30.82 J/K/mol
720 K, Crystal of intercomponent compound 1, relaxation calorimetry + DSC, x2 = 0.81 | 31.18 J/K/mol
720 K, Crystal of intercomponent compound 2, relaxation calorimetry + DSC, x2 = 0.804 | 31.84 J/K/mol
721.05 K, Crystal of intercomponent compound 2, Small sample (50 mg) DSC, x2 = 0.804 | 31.75 J/K/mol and 32.03 J/K/mol
721.2 K, Crystal of intercomponent compound 1, Small sample (50 mg) DSC, x2 = 0.81 | 30.49 J/K/mol
721.22 K, Crystal of intercomponent compound 1, Small sample (50 mg) DSC, x2 = 0.81 | 31.15 J/K/mol
730.97 K, Crystal of intercomponent compound 2, Small sample (50 mg) DSC, x2 = 0.804 | 32.1 J/K/mol and 32.36 J/K/mol
731.12 K, Crystal of intercomponent compound 1, Small sample (50 mg) DSC, x2 = 0.81 | 31.04 J/K/mol
731.13 K, Crystal of intercomponent compound 1, Small sample (50 mg) DSC, x2 = 0.81 | 31.37 J/K/mol
740 K, Crystal of intercomponent compound 1, relaxation calorimetry + DSC, x2 = 0.81 | 31.88 J/K/mol
740 K, Crystal of intercomponent compound 2, relaxation calorimetry + DSC, x2 = 0.804 | 32.3 J/K/mol
740.89 K, Crystal of intercomponent compound 2, Small sample (50 mg) DSC, x2 = 0.804 | 32.38 J/K/mol and 32.64 J/K/mol
741.03 K, Crystal of intercomponent compound 1, Small sample (50 mg) DSC, x2 = 0.81 | 31.26 J/K/mol
741.04 K, Crystal of intercomponent compound 1, Small sample (50 mg) DSC, x2 = 0.81 | 31.7 J/K/mol
750.81 K, Crystal of intercomponent compound 2, Small sample (50 mg) DSC, x2 = 0.804 | 32.68 J/K/mol and 32.92 J/K/mol
750.95 K, Crystal of intercomponent compound 1, Small sample (50 mg) DSC, x2 = 0.81 | 31.81 J/K/mol
750.96 K, Crystal of intercomponent compound 1, Small sample (50 mg) DSC, x2 = 0.81 | 32.14 J/K/mol
760 K, Crystal of intercomponent compound 1, relaxation calorimetry + DSC, x2 = 0.81 | 32.63 J/K/mol
760 K, Crystal of intercomponent compound 2, relaxation calorimetry + DSC, x2 = 0.804 | 32.82 J/K/mol
760.73 K, Crystal of intercomponent compound 2, Small sample (50 mg) DSC, x2 = 0.804 | 33.14 J/K/mol and 33.47 J/K/mol
760.87 K, Crystal of intercomponent compound 1, Small sample (50 mg) DSC, x2 = 0.81 | 32.14 J/K/mol and 32.58 J/K/mol
770.64 K, Crystal of intercomponent compound 2, Small sample (50 mg) DSC, x2 = 0.804 | 33.77 J/K/mol and 34.02 J/K/mol
770.79 K, Crystal of intercomponent compound 1, Small sample (50 mg) DSC, x2 = 0.81 | 33.23 J/K/mol and 33.34 J/K/mol
771.71 K, Crystal of intercomponent compound 1, Small sample (50 mg) DSC, x2 = 0.81 | 33.67 J/K/mol
773.69 K, Crystal of intercomponent compound 1, Small sample (50 mg) DSC, x2 = 0.81 | 33.78 J/K/mol
775.67 K, Crystal of intercomponent compound 1, Small sample (50 mg) DSC, x2 = 0.81 | 33.89 J/K/mol
777.66 K, Crystal of intercomponent compound 1, Small sample (50 mg) DSC, x2 = 0.81 | 34.22 J/K/mol
779.64 K, Crystal of intercomponent compound 1, Small sample (50 mg) DSC, x2 = 0.81 | 34.39 J/K/mol
780 K, Crystal of intercomponent compound 1, relaxation calorimetry + DSC, x2 = 0.81 | 33.45 J/K/mol
780 K, Crystal of intercomponent compound 2, relaxation calorimetry + DSC, x2 = 0.804 | 33.49 J/K/mol
780.56 K, Crystal of intercomponent compound 2, Small sample (50 mg) DSC, x2 = 0.804 | 34.41 J/K/mol and 34.69 J/K/mol
780.7 K, Crystal of intercomponent compound 1, Small sample (50 mg) DSC, x2 = 0.81 | 34 J/K/mol
780.71 K, Crystal of intercomponent compound 1, Small sample (50 mg) DSC, x2 = 0.81 | 34.22 J/K/mol
781.63 K, Crystal of intercomponent compound 1, Small sample (50 mg) DSC, x2 = 0.81 | 34.88 J/K/mol
783.61 K, Crystal of intercomponent compound 1, Small sample (50 mg) DSC, x2 = 0.81 | 34.99 J/K/mol
785.59 K, Crystal of intercomponent compound 1, Small sample (50 mg) DSC, x2 = 0.81 | 35.21 J/K/mol
787.58 K, Crystal of intercomponent compound 1, Small sample (50 mg) DSC, x2 = 0.81 | 35.32 J/K/mol
789.57 K, Crystal of intercomponent compound 1, Small sample (50 mg) DSC, x2 = 0.81 | 35.32 J/K/mol
790.48 K, Crystal of intercomponent compound 2, Small sample (50 mg) DSC, x2 = 0.804 | 34.65 J/K/mol and 35.21 J/K/mol
790.61 K, Crystal of intercomponent compound 1, Small sample (50 mg) DSC, x2 = 0.81 | 34.99 J/K/mol
790.63 K, Crystal of intercomponent compound 1, Small sample (50 mg) DSC, x2 = 0.81 | 34.55 J/K/mol
791.55 K, Crystal of intercomponent compound 1, Small sample (50 mg) DSC, x2 = 0.81 | 35.54 J/K/mol
793.53 K, Crystal of intercomponent compound 1, Small sample (50 mg) DSC, x2 = 0.81 | 35.76 J/K/mol
795.51 K, Crystal of intercomponent compound 1, Small sample (50 mg) DSC, x2 = 0.81 | 36.31 J/K/mol
797.49 K, Crystal of intercomponent compound 1, Small sample (50 mg) DSC, x2 = 0.81 | 36.96 J/K/mol
800 K, Crystal of intercomponent compound 1, relaxation calorimetry + DSC, x2 = 0.81 | 34.34 J/K/mol
800 K, Crystal of intercomponent compound 2, relaxation calorimetry + DSC, x2 = 0.804 | 34.61 J/K/mol
800.39 K, Crystal of intercomponent compound 2, Small sample (50 mg) DSC, x2 = 0.804 | 35.13 J/K/mol and 35.58 J/K/mol
810.3 K, Crystal of intercomponent compound 2, Small sample (50 mg) DSC, x2 = 0.804 | 35.47 J/K/mol and 36.02 J/K/mol
820 K, Crystal of intercomponent compound 2, relaxation calorimetry + DSC, x2 = 0.804 | 36.83 J/K/mol
820.22 K, Crystal of intercomponent compound 2, Small sample (50 mg) DSC, x2 = 0.804 | 36.24 J/K/mol and 36.35 J/K/mol
830.13 K, Crystal of intercomponent compound 2, Small sample (50 mg) DSC, x2 = 0.804 | 38.35 J/K/mol and 38.57 J/K/mol
840 K, Crystal of intercomponent compound 2, relaxation calorimetry + DSC, x2 = 0.804 | 41.72 J/K/mol
840.04 K, Crystal of intercomponent compound 2, Small sample (50 mg) DSC, x2 = 0.804 | 41.23 J/K/mol and 41.78 J/K/mol
849.95 K, Crystal of intercomponent compound 2, Small sample (50 mg) DSC, x2 = 0.804 | 45.22 J/K/mol and 47.32 J/K/mol
859.87 K, Crystal of intercomponent compound 2, Small sample (50 mg) DSC, x2 = 0.804 | 51.54 J/K/mol and 53.53 J/K/mol
860 K, Crystal of intercomponent compound 2, relaxation calorimetry + DSC, x2 = 0.804 | 52.81 J/K/mol
869.79 K, Crystal of intercomponent compound 2, Small sample (50 mg) DSC, x2 = 0.804 | 60.18 J/K/mol and 65.17 J/K/mol
